The test system of assay [1] is FGF9 induced ERK phosphorylation in Human RT112 bladder carcinoma cells. Put plainly: FGF9 induced p-ERK with BSA in RT112 cells. The note with it: RT-112, read-out: IC50 FGF9 induced p-ERK.
Procedure: FGF9 Induced p-ERK with BSA
This yielded a 10 point dose-response curve ranging from 10-0.005 μM in 1% DMSO. The incubation is continued for 1 hour at 37° C. […] Cells are fixed by the addition of 30 μL of a 25% formaldehyde solution in phosphate buffered saline (PBS) (3.7% formaldehyde final concentration), and incubated 30 minutes at RT. Cells are washed 3× with PBS, followed by the addition of 100 μL of cold methanol and incubated for 30 minutes at −20° C. The methanol is removed and the cells are treated with PBS containing 0.1% TRITON® X-100(PBST), washed 3× with PBS, and incubated 15 minutes at RT.
In assay [2] the test system is FGF receptor 1 (bFGF induced ERK phosphorylation in HUVEC). Nature of the assay: AlphaScreen SureFire Detection of ERK phosphorylation (Thr202/Tyr204) in HUVEC. The note with it: Homo sapiens, read-out: IC50 b-FGF induced ERK phosphorylation (Thr202/Tyr204). (In general: Bead proximity is the source of the signal in Alpha formats.)
Procedure: AlphaScreen SureFire Detection of ERK Phosphorylation (Thr202/Tyr204) in Human Umbilical Vein Endothelial Cells (HUVEC)
The effect of compound on the inhibition of FGF receptor 1 is measured by monitoring the phosphorylation of ERK (pERK) in response to basic-Fibroblast growth factor (b-FGF) stimulation in Human Umbilical Endothelial cells (HUVEC). […] This is a homogeneous assay format utilizing the immuno-sandwich capture of the phosphorylated analyte followed by detection using antibody-coated ALPHASCREEN® beads (Perkin Elmer) to generate an amplified signal.
For the assay, cells are harvested by standard procedures and then counted. […] Plates are incubated overnight at 37° C., 5% CO2.
On the day of the assay, cells are serum starved in 100 μL EBM (endothelial cell basal) medium containing 1.5% FBS and 20 mg/mL BSA for 3 hours at 37° C., 5% CO2, then treated with 20 μM of 3× serially diluted compound in starvation medium for 1 hour at 37° C. This yielded a 10 point concentration-response curve ranging from 10-0.005 μM in 1% DMSO. After 1 hour compound treatment, cells are stimulated with 50 μL b-FGF (Sigma, F0291, final b-FGF concentration 50 ng/mL) at 37° C. for 15 minutes. In the wells containing cells and 50 μL stimulator b-FGF yields MAX signal, and cells with 10 μM positive control compound and 50 μL stimulator b-FGF as MIN. […]

In the case of `C[C@@H](Oc1ccc2[nH]nc(/C=C/c3cnn(CCO)c3)c2c1)c1c(Cl)cncc1Cl` [Preparation 10, (R)-(E)-2-(4-(2-(5-(1-(3,5-Dichloropyridin-4-yl)ethoxy)-1H-indazol-3-yl)vinyl)-1H-pyrazol-1-yl)ethanol], the IC50 in assay [1] was found to be 0.4 nM; in assay [2] it was 0.6 nM.

(Values after patent US8530665B2 (Eli Lilly and Company, priority 2010, dated 2013).)
